Experimental data: US10827753B2, “Compositions and methods for controlling nematodes” (Monsanto Technology LLC, priority 2007, dated 2020)
Read-outs that look alike come from different tables or passages of the source. Marks after values point to notes of the source that are not given here.

Columns and labels:
root knot nematode (RKN) = assay: RKN greenhouse soil assay on cucumber plants; type: in vivo, Meloidogyne incognita
Text: Cucumber seeds are planted in a sandy soil mixture in two inch square plastic pots. When the cotyledons are fully opened and just as the first leaf begins to emerge, usually 7 days after planting, chemistry for the 7 day treatment is applied. One week later the chemistry for the 0 day treatment is applied. Separate plants are used for each application. The plants are generally in the 1-2 leaf stage now. At least four hours after the chemistry application the pots are inoculated with root knot nematode (RKN) eggs. Plants are rated for galling 14 days after the egg inoculation.
One milligram of chemistry per four pots is equal to one kilogram per hectare of chemical. A standard test uses four replications. For rates above 2 kg/ha, the desired amount of chemical is weighed into a 30 ml vial (example: 8 kg/ha rate=8 mg chemical in 30 ml vial). The chemical is dissolved in 2 ml of appropriate solvent, generally acetone. For rates below 2 kg/ha, 2 milligrams of chemistry is weighed into the vial and dissolved in 2 ml of the solvent. The appropriate amount of chemical concentrate is then pipetted into a separate 30 ml vial and solvent is added to bring the volume to 2 ml (example 0.5 kg/ha=0.5 ml of concentrate+1.5 ml solvent). Each dissolved concentrate is then brought to a total of 20 milliliters using 0.05% Triton X 100 surfactant solution.
Pots to be treated are moist but not saturated. To each of four pots, five milliliters of the appropriate chemical solution is pipetted to the media surface making sure to avoid contact with the base of the plant. Immediately following chemical application, using a mist nozzle, the pot surface is wetted sufficiently to saturate the pot watering in the chemistry. The chemical application is done in the morning.
Nematode eggs, either SCN or RKN, are added to distilled water to create a concentration of 1000 vermiform eggs […]. At least four hours after chemical treatment the eggs are applied to the treated pots plus non-treated check plants. A small hole about 1 cm deep is punched into the pot surface. One milliliter of the nematode egg slurry is pipetted into the hole. Immediately afterwards the hole is gently covered. Watering of the test plants is then restricted to only water as needed to prevent wilt for a period of 24 hours. After the 24 hour restricted watering, normal sub-irrigation watering is done for the duration of the test.

Meloidogyne incognita [1] = assay: M. incognita miniaturized greenhouse assay on cucumber seedlings (root galling); type: in vivo; design: key to 1 ppm gall ratings / 1 ppm gall rating: mean of 3 gall ratings: 0=0-5%, 1=6-20%, 2=21-50%, 3=51-100% root galled; conditions: for 8 ppm gall ratings: average of triplicate gall rating, scale 0-3 (% root mass galled)
Method: The test compound is dissolved in an acetone solution and added to water. A sprouted cucumber seedling is placed into a vial with dry sand and the water-chemical solution is added immediately. Twenty four hours later Meloidogyne incognita eggs are added to the vials and 10 to 12 days later the roots are evaluated for nematode galling.
Cucumber seeds are sprouted for 3 days in moist paper towels. Acceptable sprouts should be 3 to 4 cm long with several lateral roots just emerging. Stock solutions of chemistry are prepared in a mixture of acetone and Triton X100 (412 mg in 500 mL) to a final concentration of 5 mg/mL. The chemical stock solution is then added to 10 mL deionized water plus 0.015% Triton X100 and mixed thoroughly. This is enough to test each condition in triplicate. Ten mL dry sand is added to each vial. At this time the solubility of the chemistry is visually determined and recorded as either ppt (large precipitates) or cloudy (fine precipitates). Seedlings are planted by tilting the vial and laying the seedling in the correct orientation so that the cotyledons are just above the sand and then tilting back to cover the radicles with sand. 3.3 ml water/chemical mix is added to each vial and the vials placed in racks under fluorescent light banks. The vials are inoculated two days after planting by adding 500 vermiform M. incognita eggs to each vial in 50 uL of deionized or spring water. The vials are then kept under the fluorescent lamps at ambient room temperature and watered as needed with 1 mL deionized water, usually twice during duration of test. Harvest of the cucumber plants is done 10 to 12 days after inoculation by washing sand off the roots. A root gall rating and visual phytotoxicity rating is assigned using the following scales: Gall rating scale (Gall: % root mass galled): 0=0-5%; 1=6-20%; 2=21-50%; and 3=51-100%. The average of the triplicate gall rating is then calculated: green=0.00-0.33 (no galls); yellow=0.67-1.33 (mild galling); orange=1.67-2.33 (moderate galling); red=2.67-3.00 (severe galling). Visual phytotoxicity scale is also assigned (Vis. tox; visual reduction in root mass compared to the control): rs1=mild stunting; rs2=moderate stunting; rs3=severe stunting.

root knot nematode = assay: Pre-plant incorporated (PPI) greenhouse test of root knot nematode on cucumber plants; type: in vivo, Meloidogyne incognita; conditions: Meloidogyne incognita, read-out: percent control (galling reduction) relative to the control blank treatment; for pest or weed control at 4000 g/ha: 4 kg/ha rate; for pest or weed control at 8000 g/ha: 8 ka/ha rate; for pest or weed control at 2000 g/ha: 2 kg/ha rate
Text: The PPI test examines the effect of pre-incorporation of compounds in soil and longer aging to simulate in furrow methods of nematicide application in the field. The PPI test exposes compounds to a higher volume of soil and drying which can result in more severe soil binding. Compounds are also aged for longer periods which can lead to more extensive biotic and abiotic degradation further limiting activity.
The chemically treated soil (sandy soil mix) for all treatment days (e.g., 7 days, 14 days, 21 days) treatments is potted into their appropriate pots. On the same day the 7 day treatment pots are seeded. One week later eggs are applied and 14 days after egg application the test is harvested. The 14 day treatments are planted 7 days after the first planting. The 14 day planting and 7 day inoculation happen on the same day. One week later the 14 day treatments are inoculated with eggs. These are harvested 14 days after the inoculation. The 21 day treatments are planted 14 days after the first planting. The 14 day inoculation and 21 day planting are done on the same day. One week later the 21 day plants are inoculated with eggs. The 7 day treatment is harvested the same day as the 21 day inoculation. Fourteen days after inoculation the 21 day plants are harvested.
For each compound a stock is prepared using 4 mg material in 4 ml of acetone. The soil is mixed by placing 80 ml of field soil and 320 ml of sand in a plastic bag and mixing well. The formulation for treatment is done by adding 2.13 ml (8 kg/ha rate), 1.06 ml (4 kg/ha rate) or 0.53 ml (2 kg/ha rate) to a vial and raising it with 10 ml in 0.05%×100. Soil is then treated by adding the entire 10 ml to the 400 ml of mix in the bag. The treated soil is immediately mixed well in the sealed bag to distribute the compound evenly. Approximately 95 ml is used to fill each 2-inch square pot up to the top with some soil compression and flattening. For each compound and for the control treatments 4 pots are filled. All pots are watered until moist but with no run-out through the bottom.
The PPI test simulates 8, 4 and 2 kg/ha rates incorporated 15 cm deep in the field and is equivalent to the 2, 1 and 0.5 kg/ha drench application rates in the standard 2-inch pot cucumber greenhouse assay.

Meloidogyne incognita [2] = assay: Summer field evaluation of pre-plant incorporated compounds on squash; type: in vivo
Method: Test plots of 33 cm diameter holes were bored 41 cm deep into clay soil and filled with a mixture of 80% sand and 20% silt loam soil. Technical compound for each treatment was dissolved in 50 ml acetone containing 250 ul of Triton X-100 surfactant. This solution was added to 450 ml water and poured onto 95 liters of sand/soil mixture in a rotating drum mixer. While continuing to rotate the mixing drum 66 grams of chopped, galled, tomato roots was added and thoroughly distributed. The treated soil was sufficient to fill the top 15 cm of each of the 6 replicate plots, thus simulating a PPI treatment. The plots were then watered lightly and a mixture of M. incognita eggs and larvae were injected 5 cm deep at 5 points within the plot (100 k eggs/larvae in 10 ml per plot). Three-week old squash (cv. Liberator III) with 1 fully expanded true leaf was planted 4 days after soil treatment, one per plot.

C. elegans = assay: Three day C. elegans well assay; type: in vivo; conditions: L4 larvae; for EC50 L4 1D: one day of exposure; for EC50 L4 2D (F1): two days of exposure, effects on the second generation larvae (F1)
Method: Various compounds were tested for nematicidal activity against C. elegans using contact assays in wells. The assays were performed as described below. The test compounds were solubilized in DMSO at 10 mg/ml to create 100× stock solutions. A dilution series was created by diluting the stock solution with DMSO. For each well assay 4 ul of the appropriate dilution is added to a well of a test plate. A 400 ul aliquot of bacterial stock (in M9 buffer with ampicillin and nystatin) are added to each well of the test plate. Worms are added and the test plate placed on a rotary shaker and held at 20° C. Worms are examined and scored at 4 hrs, 24 hrs, 48 hrs and 72 hours. L1 worms and L4 worms were used in the assay. L1 worms are prepared by plating eggs on a plate without a bacterial feeding layer. The eggs hatch and arrest at the L1 stage. This L1 stage population is then used to create a stock for the experiments. To create an L4 stage stock a small number of worms are taken from an overgrown and starved plate of worms and seeded on a plate with a bacterial feeder layer. A 25 ul aliquot of worms is added to each well in the assay.

[3] = Acetone 1 mg/kg, standard 10% acetone in 0.05% Triton X 100 formulation
[4] = Radex 1 mg/kg, emulsifiable concentrate, 6.25% active ingredient by weight
[5] = 168 h, seven day pre-plant incorporated
[6] = fourteen day pre-plant incorporated, test a

Compound	percent control (galling reduction) relative to the appropriate control blank treatment (root knot nematode (RKN); [3])	percent control (galling reduction) relative to the appropriate control blank treatment (root knot nematode (RKN); [4])	1 ppm gall ratings (Meloidogyne incognita [1]; Table 1B test a)	1 ppm gall ratings (Meloidogyne incognita [1]; Table 1B test b)	8 ppm gall ratings (Meloidogyne incognita [1])	pest or weed control at 2000 g/ha (root knot nematode; [6])	pest or weed control at 4000 g/ha (root knot nematode; [6])	pest or weed control at 8000 g/ha (root knot nematode; [6])	EC50 L4 1D (C. elegans)	other results
Brc1ccc(-c2noc(-c3cccs3)n2)cc1 [compound 1846]	88%	86%	1.33	0.67	0 (0=0-5%)	–	–	–	–	–
FC(F)(F)c1ccc(-c2noc(-c3cccs3)n2)cc1 [compound 5213]	–	–	–	–	0.33	–	–	–	–	pest or weed control at 4000 g/ha (root knot nematode; [5]): 85%; pest or weed control at 8000 g/ha (root knot nematode; [5]): 98%
Brc1ccc(-c2noc(-c3ccco3)n2)cc1 [compound 5467]	73%	88%	1.67	1.33	0 (0=0-5%)	71%	76%	100%	–	–
Fc1ccc(-c2noc(-c3cccs3)n2)cc1 [compound 5479]	91%	96%	1 (1=6-20%)	0.67	0 (0=0-5%)	71%	89%	100%	–	–
Clc1ccc(-c2noc(-c3ccco3)n2)cc1 [compound 5523]	86%	86%	1 (1=6-20%)	1.33	0 (0=0-5%)	59%	87%	99%	–	0-3 vigor 16 DAP (Meloidogyne incognita [2]; 4 kg (kg/ha) PPI, squash): 3.0; 0-3 vigor 21 DAP (Meloidogyne incognita [2]; 4 kg (kg/ha) PPI, squash): 3.0; feeder root (3 = ave) 31 DAP (Meloidogyne incognita [2]; 4 kg (kg/ha) PPI, squash): 3.0; gall % 31 DAP (Meloidogyne incognita [2]; 4 kg (kg/ha) PPI, squash): 26%; root wgt (g) 31 DAP (Meloidogyne incognita [2]; 4 kg (kg/ha) PPI, squash): 26.3 g; top wgt (lbs) 31 DAP (Meloidogyne incognita [2]; 4 kg (kg/ha) PPI, squash): 1.31 lbs; total fruit (lbs) (Meloidogyne incognita [2]; 4 kg (kg/ha) PPI, squash): 1.24 lbs; control of M. incognita (in words) (Meloidogyne incognita [2]; PPI application at 4 kg/ha): significant control
Clc1ccc(-c2noc(-c3cccs3)n2)cc1 [compound 5527]	91%	80%	1.67	1 (1=6-20%)	0.67	57%	90%	96%	–	–
Clc1cc(-c2noc(-c3cccs3)n2)ccc1Br [compound 5820]	–	–	–	–	–	–	–	–	no	EC50 L4 2D (F1) (C. elegans): (25 F1) parts per million
Clc1cc(-c2noc(-c3ccco3)n2)ccc1Br [compound 5821]	–	–	–	–	–	–	–	–	no	EC50 L4 2D (F1) (C. elegans): (0.4 F1) parts per million
Cc1cc(Cl)ccc1-c1noc(-c2cccs2)n1 [compound 5822]	–	–	–	–	–	–	–	–	no	–
Cc1cc(Br)ccc1-c1noc(-c2ccco2)n1 [compound 5825]	96%	96%	0 (0=0-5%)	0.33	–	69%	98%	96%	–	percent control (galling reduction) relative to the control blank treatment (root knot nematode (RKN); 0 day treatment, 0.05 kg/ha, test a): 53^a percent; percent control (galling reduction) relative to the control blank treatment (root knot nematode (RKN); 0 day treatment, 0.1 kg/ha, test a): 50^a percent; percent control (galling reduction) relative to the control blank treatment (root knot nematode (RKN); 0 day treatment, 0.25 kg/ha, test a): 89%; percent control (galling reduction) relative to the control blank treatment (root knot nematode (RKN); 0 day treatment, 0.25 kg/ha, test b): 84%; percent control (galling reduction) relative to the control blank treatment (root knot nematode (RKN); 0 day treatment, 1 kg/ha, test b): — 94^b percent; percent control (galling reduction) relative to the control blank treatment (root knot nematode (RKN); 7 day treatment, 1 kg/ha, test b): — 97^b percent
